Measurements: patent publication US20150125589A1, “TASTE-IMPROVING AGENT AND FOOD OR DRINK CONTAINING SAME” (NIPPON SUISAN KAISHA, LTD., priority 2011, published 2015)

Experiments:
[1] = Evaluation method 1: expert panel ranking of potassium chloride unpleasant flavor intensity (normalized rank method), chicken stock soup; details: for effect of phospholipid for improvement of unpleasant flavor of potassium chloride: phospholipid 0.02 percent in standard solution 8, FIG. 21
[2] = Evaluation method 2: quantitating improvement of unpleasant flavor of potassium chloride as K/Na ratio against standard solutions, chicken stock soup; details: for improvement effect against the unpleasant flavor of potassium chloride: glycoside or aglycone 25 ppm final in standard solution 8, FIG. 17
Protocol: 1.32 g of Chinese soup stock granules (product name=“Marudori-gara Soup”, manufactured by Ajinomoto K.K., standard nutritional ingredients of 2.5 g of Chinese soup stock granules are shown in Table 1) was dissolved in 70 g of distilled water, and the mixture was filtered through filter paper (filter paper no. 2, manufactured by Advantec Toyo K.K.). Thereafter, 0.63 g of NaCl was added, and water was further added to obtain 100 g of chicken stock soup containing an equivalent of 1.26 percent table salt (Table 2, standard solution 1). The concentration of sodium chloride was decreased in a stepwise manner from the composition of the standard solution 1, and potassium chloride was added to produce multiple chicken stock soups (Table 2, standard solutions 2 to 8). The ratio of potassium chloride to sodium chloride ((potassium chloride concentration/sodium chloride concentration)×100(%), referred to hereinafter as “K/Na ratio”) was changed in standard solutions 1 to 8, and the intensity of the unpleasant flavor (i.e. bitterness, astringent taste, harsh taste, and bitter taste) characteristic of potassium chloride increased as the K/Na ratio value increased. The unpleasant flavor intensity increased in a stepwise manner for standard solutions 1 to 8. Intensity of this unpleasant flavor and detailed taste were evaluated by organoleptic evaluation by an expert panel, and results of evaluation were classified in three stages, i.e. initial taste, middle taste, and aftertaste.
A desired concentration of test solution was added to one of the standard solutions of Table 2 to produce an evaluation solution. At this time, for a test sample containing sodium chloride or potassium chloride, the evaluation solution was adjusted such that the total sodium chloride concentration or total potassium chloride concentration of the evaluation solution was equivalent to the respective standard solution. The standard solutions 1 to 8 of Table 2 are indicated in order of potassium chloride concentration. These evaluation solutions were compared to the standard solution, and the corresponding unpleasant flavor of potassium chloride was expressed as a K/Na ratio. The improvement effect was indicated as higher as the ratio of K/Na ratio obtained by evaluation to actual K/Na ratio decreased.

[3] = Unpleasant taste distinguishable concentration of potassium chloride, blind ranking by panel; details: chicken stock soup models, panel n=11; FIG. 28
Protocol: 1.32 g of Chinese soup stock granules (product name=“Marudori-gara Soup”, manufactured by Ajinomoto K.K., standard nutritional ingredients of 2.5 g of Chinese soup stock granules are shown in Table 1) was dissolved in 70 g of distilled water, and the mixture was filtered through filter paper (filter paper no. 2, manufactured by Advantec Toyo K.K.). Thereafter, 0.63 g of NaCl was added, and water was further added to obtain 100 g of chicken stock soup containing an equivalent of 1.26 percent table salt (Table 2, standard solution 1). The concentration of sodium chloride was decreased in a stepwise manner from the composition of the standard solution 1, and potassium chloride was added to produce multiple chicken stock soups (Table 2, standard solutions 2 to 8). […] Intensity of this unpleasant flavor and detailed taste were evaluated by organoleptic evaluation by an expert panel, and results of evaluation were classified in three stages, i.e. initial taste, middle taste, and aftertaste.
Standard solutions 1 to 7 (with the exception of standard solution 2) were evaluated by a panel (n=11) by blind-testing to determine the order of potassium chloride unpleasant flavor intensity.

Molecule	effect of phospholipid for improvement of unpleasant flavor of potassium chloride [1]	improvement effect against the unpleasant flavor of potassium chloride [2]	also measured
Phosphatidylcholine [PC]	high effects		
O=c1cc(-c2ccc(O)cc2)oc2cc(O[C@@H]3O[C@H](CO)[C@@H](O)[C@H](O)[C@H]3O[C@@H]3OC[C@](O)(CO)[C@H]3O)cc(O)c12 [fraction 13, apiin]		particularly high effect	unpleasant flavor improvement effect of parsley extract fraction relative to its parent solution ([1]; fraction aqueous solution added at 15 percent by weight to standard solution 8, FIG. 12-15): equivalent to that of the evaluation solution 9; added amount at which near maximum unpleasant flavor improvement effect was reached ([2]; 25, 50, 125, 250 ppm in standard solution 8, FIG. 16): ≥ 125 ppm
O=c1cc(-c2ccc(O)cc2)oc2cc(O)cc(O)c12 [apigenin, Apigenin]		high effect	
O=c1c(-c2ccc(O)cc2)coc2cc(O[C@@H]3O[C@H](CO)[C@@H](O)[C@H](O)[C@H]3O)ccc12 [daidzin, Daidzin]		high effect	
Phosphatidylinositol [PI]	high effects		
Phosphatidylserine [PS]	high effects		
Phosphatidic acid [PA, reference compound]	low		
Phosphatidylethanolamine [PE]	high effects		
C[C@@H]1O[C@@H](O[C@H]2[C@H](Oc3cc(O)c4c(c3)O[C@H](c3ccc(O)cc3)CC4=O)O[C@H](CO)[C@@H](O)[C@@H]2O)[C@H](O)[C@H](O)[C@H]1O [naringin, Naringin, reference compound]		improvement effect was not found	
O=c1cc(-c2ccc(O)cc2)oc2cc(O[C@@H]3O[C@H](CO)[C@@H](O)[C@H](O)[C@H]3O)cc(O)c12 [apigenin 7-glucoside, Apigenin 7-glucoside]		high effect	
[Cl-].[K+] [potassium chloride]			K/Na ratio at which unpleasant flavor of potassium chloride was not generally recognized [3]: less than or equal to 57%
